Laboratory results: US10597649B2, “Tau protease compositions and methods of use” (Oligomerix, Inc., priority 2011, dated 2020)

How the values were obtained:
tau 4R2N trimer [1] = target: T1, tau 4R2N trimer (Homo sapiens, UniProt P10636); assay: Tau 4R2N trimer incubated overnight with protease inhibitors, fragmentation read by SDS-PAGE; type: biochemical; details: overnight at 37° C., inhibitors at low and high concentrations; chymostatin 10 and 100 μM
T1 construct: Stabilization buffer enables production of full length monomer, dimer and trimer for tau protease; made in house; host or cells: E. coli BL21 (DE3) Gold
T1 sequence (P10636 1-441 isoform P10636-8): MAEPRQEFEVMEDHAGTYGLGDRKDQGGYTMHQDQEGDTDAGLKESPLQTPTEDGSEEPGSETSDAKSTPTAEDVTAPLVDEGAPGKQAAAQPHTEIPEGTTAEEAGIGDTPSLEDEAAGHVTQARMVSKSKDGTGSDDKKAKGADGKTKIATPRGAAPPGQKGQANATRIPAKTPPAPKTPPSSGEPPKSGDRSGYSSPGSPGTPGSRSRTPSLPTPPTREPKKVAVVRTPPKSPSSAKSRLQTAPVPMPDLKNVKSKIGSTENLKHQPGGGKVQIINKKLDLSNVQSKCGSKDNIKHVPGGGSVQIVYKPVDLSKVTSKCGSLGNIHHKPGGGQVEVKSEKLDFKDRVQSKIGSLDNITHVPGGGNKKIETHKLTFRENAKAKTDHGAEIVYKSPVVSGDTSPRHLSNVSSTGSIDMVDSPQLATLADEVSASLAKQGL
Protocol: Tau 4R2N trimer was incubated overnight at 37° C. with and without serine-specific protease inhibitors (Sigma Aldrich, St. Louis, Mo.). The incubation volumes were 3.45 microliter at a final concentration of 0.145 mg/mL tau 4R2N trimer.
Tau 4R2N trimer was incubated overnight at 37° C. with and without serine-specific protease inhibitors at low and high concentrations.
Tau trimer protease was incubated with and without protease inhibitor cocktail overnight containing serine protease, amino-peptidase, cysteine protease and aspatic protease inhibitors.
For each sample, 0.45 μg of tau 4R2N trimer was incubated at 0.2 mg/mL overnight at 37° C. in the presence of various freshly prepared protease inhibitors. Non-incubated control was kept on ice overnight at 4° C. Next day, 2× sodium dodecyl sulfate sample buffer with reductant was added to each sample and loaded onto a 4-20% gradient Tris-HCl Criterion Gel (Bio-Rad).
Protease inhibitors targeted include serine proteases, amino-peptidases, cysteine proteases, metallo-proteases, and aspartic proteases.

tau 4R2N trimer protease = target: T2, tau 4R2N trimer protease (Homo sapiens, UniProt P10636); assay: Peptide assay (tau peptide 335-353, reverse-phase HPLC) used to screen serine protease inhibitors; type: biochemical; set-up: inhibition of cleavage of the peptide (FIG. 14D) / inhibition of cleavage of the peptide (FIG. 14F): dose or concentration left out as unconfirmed; details: 1 hr at room temperature before peptide substrate
T2 construct: Stabilization buffer enables production of full length monomer, dimer and trimer for tau protease; made in house; host or cells: E. coli BL21 (DE3) Gold
T2 sequence (P10636 1-441 isoform P10636-8): as above
Excerpt: N-terminal sequencing of fragments using mass spectrometry identified autoproteolytic cut sites. In particular, cutting at the Lys340-Ser341 (340KS341) cut site occurred readily. Therefore, a 19-amino acid peptide corresponding to amino acids 335G to 353L of tau protein was synthesized that contained the KS cut site (340KS341). The reaction was monitored by reverse-phase high-pressure liquid chromatography (HPLC). […] An asterisk marks a non-specific contaminant that was used as a marker. […] 10 μg of tau peptide 335-353 ([…]) (SEQ ID NO:19) was custom synthesized by Genscript (Piscataway, N.J., USA) and 1 mg was dissolved in 1 mL of buffer (25 mM Tris-HCl pH 7.4). […] of peptide was incubated with 11 μg of tau trimer protease in 30 μL buffer 20 hr at 37° C. and analyzed by HPLC [SystemGold® 32Karat™ LC-CE System, Beckman Coulter, Inc., (Indianapolis, Ind.)] using a linear gradient of acetonitrile in 0.1% TFA 0-60% acetonitrile on an analytical C18 column (12.5 cm×2.1 mm, 5 μm, (Supelco, Bellefonte, Pa., USA). 30 μg of peptide was incubated without tau protease as a negative control and analyzed with the same method;
The peptide assay for tau 4R2N trimer activity described in FIG. 5 was used to screen a series of serine protease inhibitors. 1 mM AEBSF was incubated with tau 4R2N trimer for 1 hr at room temperature before addition of the peptide substrate. […] The asterisk indicates an artifactual peak unrelated to the peptide;

Tau 4R2N [2] = target: T3, Tau 4R2N (Homo sapiens, UniProt P10636); assay: NEM treatment of tau 4R2N monomer, incubation at 37° C., non-reducing SDS-PAGE; type: biochemical; details: 1 mM NEM for 2 hr
T3 construct: Stabilization buffer enables production of full length monomer, dimer and trimer for tau protease; made in house; host or cells: E. coli BL21 (DE3) Gold
T3 sequence (P10636 1-441 isoform P10636-8): as above
Protocol: FIG. 2 illustrates the formation of disulfide mediated tau oligomers preceded truncation and higher order aggregate formation. Tau 4R2N oligomers were purified by continuous-elution electrophoresis and monomer was further purified by pooling and buffer exchanging using spin columns with a molecular weight cut-off of 7000 Da into 25 mM Tris-HCl pH 7.4. A small amount of the monomer was treated with freshly-prepared NEM at a final concentration of 1 mM for 2 hr at ambient temperature. For incubations, monomer treated and untreated with NEM was allowed to incubate at 37° C. over the weekend (approximately 50 hrs), followed by separation on 4-20% sodium dodecyl sulfate (SDS)-polyacrylamide gel electrophoresis (PAGE) (SDS-PAGE) Tris-HCl gel (Bio-Rad Catalogue #345-0033 Hercules, Calif., USA) without reductant. Tau 4R2N—Disulfide-mediated oligomer formation preceded truncation, and truncation preceded higher-order aggregation. Aggregate formation was time dependent.

Aβ = details: clinical endpoint in Phase III; cited from earlier work
tau 4R2N trimer [3] = target: T1, tau 4R2N trimer; assay: SDS titration for tau protease stabilization buffer; type: biochemical
Protocol: (§1) Purified recombinant human tau 4R2N was prepared as described in the flow chart. Monomer, dimer and trimer species were purified preparative electrophoresis from a tau 4R2N preparation that had formed oligomers. The electrophoresis buffer contained 0.1% SDS which inhibited the proteolytic activity. Fractions containing the tau species were buffer exchanged into 25 mM Tris-HCl pH 7.4 using and Amicon ultrafiltration device (Merck Millipore, Billerica, Mass.), which led to restoration of tau autoproteolytic activity. Protein concentrations of the preparations were determined using the BCA kit (ThemoFisher Scientific). Samples were run on a pre-cast 4-20% polyacrylamide Tris-HCl gel (BioRad, Hercules, Calif.) without using reductant in order to visualize the disulfide mediated oligomers. The gel was stained with GelCodeBlue Safe (ThermoFisher Scientific, Rockford, Ill.). Lane 1: 5.2 μg of tau 4R2N oligomer standard; Lane 2: 2 microliter of monomer fraction before buffer exchange; Lane 3: 0.5 μg monomer after buffer exchange; Lane 4: […] of dimer fraction before buffer exchange; Lane 5: 0.5 μg dimer after buffer exchange; Lane 6: 20 μL trimer fraction before buffer exchange; Lane 7: 0.5 μg trimer after buffer exchange.
This example describes the development and characterization of a stabilization buffer for preserving the activity of tau protease. […]

Tau 4R2n 241-340 (TP-99) = target: T4, Tau 4R2n 241-340 (TP-99) (Homo sapiens, UniProt P10636); assay: TP-99 peptide digest HPLC assay with added zinc chloride; type: biochemical; details: 100 μM zinc chloride, 44 hr at 37° C.
T4 construct: initiating methionine (N); made in house; host or cells: E. coli BL21 (DE3) Gold
T4 sequence (P10636 with tags, fused parts or gaps): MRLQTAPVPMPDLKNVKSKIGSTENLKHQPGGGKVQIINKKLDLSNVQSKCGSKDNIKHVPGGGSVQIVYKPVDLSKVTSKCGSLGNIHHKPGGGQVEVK
Protocol: As in FIG. 7, cleavage of the peptide substrate for tau protease Tau 4R2N (amino acids 335-353) was used to monitor activity using reverse-phase HPLC. […] The large peak in the lower trace indicates intact peptide which is greatly diminished in the upper trace and replaced with two smaller peaks F1 and F2 that represent fragments generated by TP-99. […] The asterisk indicates an artifact peak that is derived from the incubation tube. Ten microgram of Tau peptide 335-353 (OP-001) was incubated without TP-99, with 25 μL, TP-99 oligomer ladder, or with additional 100 μM zinc chloride, 44 hr at 37° C. in 30 μL buffer (25 mM Tris-HCl pH 7.4). Samples were analyzed by reverse phase HPLC (SystemGold® 32Karat™ LC-CE System, Beckman Coulter, Inc., (Indianapolis, Ind.)) using a linear gradient of acetonitrile in 0.1% TFA 0-60% acetonitrile on an analytical C18 column (12.5 cm×2.1 mm, 5 μm, (Supelco);

Tau 4R2N [4] = target: T3, Tau 4R2N; assay: Autoproteolytic activity of purified tau monomer, dimer and trimer (SDS-PAGE); type: biochemical; details: for degradation in contamination control study (Example 3): 0.35 μg, overnight at 37° C., equal sample volumes from purification; for autoproteolytic activity (Example 1): after buffer exchange into 25 mM Tris-HCl pH 7.4, incubation at 37° C.
Protocol: This example describes the identification of the autoproteolytic activity of tau oligomers.
as §1
Tau 4R2N undergoes autoproteolytic cleavage (self-cleavage) when it forms disulfide-mediated oligomers upon incubation. Tau autoproteolyic activity co-purified with the dimer and trimer species. The amount of autoproteolytic activity was greatest with trimer which fragmented to the extent where no full size trimer remained after incubation. […] It was also shown that Tau autoproteolytic activity co-purified with dimer and trimer species. […] Full-length trimer digested completely into smaller fragments, and upon incubation, monomer formed an oligomeric ladder that produced a low level of autoproteolytic activity.
(§2) Monomer, Dimer, and Trimer of Tau 441 were purified under non-reducing conditions using continuous-elution electrophoresis. Fractions of each oligomer sample were pooled and buffer exchanged into stabilization buffer using an Amicon spin concentrator with a molecular weight cut-off of 30,000 daltons. 0.35 μg of each sample was incubated overnight at 37° C. while non-incubated control was kept on ice at 4° C. Next day, 2×SDS sample buffer without reductant was added to each sample and loaded onto a 4-20% gradient Tris-HCl Criterion Gel (Bio-Rad, Hercules, Calif.).
as §2, with “This example presents results from a contamination control study of tau protease. Monomer,” for “Monomer,”, “2× sodium dodecyl sulfate” for “2×SDS”
Lane 1—tau oligomer ladder standard; Lane 2—empty; Lane 3—purified monomer no incubation (fraction from purification plate); Lane 4—purified monomer without incubation; Lane 5—purified monomer with incubation; Lane 6—purified dimer without incubation; Lane 7—purified dimer with incubation; Lane 8—purified trimer without incubation; purified trimer with incubation overnight at 37° C. Lanes 3-9 were treated with sample buffer containing β-mercaptoethanol (BME).

CC(C)C[C@H](NC(=O)[C@@H](NC(=O)N[C@@H](Cc1ccccc1)C(=O)O)[C@@H]1CCN=C(N)N1)C(=O)N[C@H](C=O)Cc1ccccc1 [Chymostatin]
inhibitory effect on tau 4R2N trimer, serine protease inhibitor panel (FIG. 12) (tau 4R2N trimer [1]): greatest inhibitory effect
inhibition of cleavage of the peptide (FIG. 14D) (tau 4R2N trimer protease; chymostatin): strongly inhibited

CCN1C(=O)C=CC1=O [NEM, N-ethylmaleimide]
disulfide-mediated oligomer formation (Tau 4R2N [2]; then about 50 hrs at 37° C.): irreversibly inhibited
autoproteolytic activity (Tau 4R2N [2]; then incubation at 37° C.): loss of autoproteolytic activity
higher order aggregate formation (Tau 4R2N [2]; then incubation at 37° C.): inhibition of higher order aggregate formation

C[C@@H](C(=O)O)c1ccc(-c2ccccc2)c(F)c1 [R-flurbiprofen]
Status (Aβ): Failed to meet

CCCCCCCCCCCCOS(=O)(=O)[O-].[Na+] [SDS, sodium dodecyl sulfate]
minimal inhibitory concentration for the enzymatic activity (tau 4R2N trimer [3]; 0.3 μg tau 4R2N trimer, overnight at 37° C., 50 mM TrisHCl pH 7.4): 0.002%
proteolytic activity in electrophoresis buffer (tau 4R2N trimer [3]; 0.1% SDS): inhibited

CC(C)[C@H](O)C(=O)N[C@@H](C)C(=O)N[C@@H]1C(=O)N(C)CCc2ccccc21 [Semagacestat]
Status (Aβ): Failed to meet

NCCCS(=O)(=O)O [Tramiprosate]
Status (Aβ): Failed to meet

[Cl-].[Cl-].[Zn+2] [zinc chloride]
activity of TP-99 on tau peptide 335-353 (Tau 4R2n 241-340 (TP-99)): increased the activity

gabexate mesylate
inhibition of cleavage of the peptide (FIG. 14F) (tau 4R2N trimer protease; gabexate mesylate): did not significantly inhibit

tau 4R2N dimer: purified disulfide-mediated dimer species of recombinant human tau 4R2N
degradation in contamination control study (Example 3) (Tau 4R2N [4]): minimal cleavage
autoproteolytic activity (Example 1) (Tau 4R2N [4]): showed autoproteolytic activity

tau 4R2N monomer: purified monomer species of recombinant human tau 4R2N
degradation in contamination control study (Example 3) (Tau 4R2N [4]): minimal cleavage
autoproteolytic activity (Example 1) (Tau 4R2N [4]): minor activity
